In patent US9657022B2, “7-OXO-1,6-diazabicyclo[3.2.1]octane derivatives and their use as antibacterial agents” (WOCKHARDT LIMITED, priority 2014, dated 2017):
≈ marks a conversion by molar mass, not a printed value. Where “and” joins values, the source holds several entries; their conditions need not be identical. Identical values can stand only once. Like-named read-outs stand apart in the source and are kept apart here.

How the values were obtained:
[1] = tested on: E. coli NCTC 13353 (CTX-M15, OXA-1); test: Antibacterial activity (MIC), agar dilution per CLSI; format: cell-based; conditions: Escherichia coli, NCTC13353; E. coli NCTC 13353 (CTX-M15, OXA-1); read-out: MIC
Description: (§1) The biological activity of representative compounds according to the invention against various bacterial strains was investigated. In a typical study, overnight grown bacterial cultures were diluted appropriately and inoculated on the agar media containing doubling dilutions of the test compounds. Observations for growth or no growth was performed after 16-20 hours of incubation at 35±2° C. in the ambient air. The overall procedure was performed as per Clinical and Laboratory Standards Institute (CLSI) recommendations, (Clinical and Laboratory Standards Institute (CLSI), Performance Standards for Antimicrobial Susceptibility Testing, 20th Informational Supplement, M07-A9, Volume 32, No. 2, 2012). Molten Mueller Hinton Agar (BD, USA) containing serial dilutions of each antibacterial agent were poured on to the plates and allowed to solidify. Appropriate suspensions from the freshly grown cultures were prepared in normal saline so that about 10^4 CFU/spot of the organism was delivered on to the drug containing agar plates using automated multipoint inoculator (Mast, UK). The plates were incubated in Biochemical oxygen demand (BOD) incubator at 37° C. for 18 hours and then examined for growth.
(§2) The strains selected for study included E. coli NCTC 13353 producing CTX-M15 and OXA-1 beta-lactamase enzymes; K. pneumoniae H521 producing KPC, SHV, TEM beta-lactamase enzymes; and K. pneumoniae S48 producing NDM, SHV, TEM beta-lactamase enzymes. The activities are expressed as Minimum Inhibitory Concentrations (MICs) (mcg/ml).
(§3) The activities are expressed as Minimum Inhibitory Concentrations (MICs) (mcg/ml).

[2] = tested on: K. pneumoniae H521 (KPC, SHV, TEM); test: as above; format: cell-based; conditions: Klebsiella pneumoniae; K. pneumoniae H521 (KPC, SHV, TEM); read-out: MIC
Description: as §1, §2, §3

[3] = tested on: C. frundaii 58 MP; test: as above; format: cell-based
Description: as §1
(§4) Table 3 details the antibacterial activity of representative compound of Formula (I), (2S,5R)-sulfuric acid mono-{2-[N′-(2-(S)-pyrrolidin-2-yl-acetyl)-hydrazinocarbonyl]-7-oxo-1,6-diaza-bicyclo[3.2.1]oct-6-yl}ester (Compound of Example 1), against various Multi Drug Resistant (MDR) Gram-negative bacterial strains. The activities are expressed as Minimum Inhibitory Concentrations (MICs) (mcg/ml).

[4] = tested on: E. coli NCTC 13351; test: as above; format: cell-based; conditions: Escherichia coli, NCTC13351
Description: as §1, §4

[5] = tested on: K. pneumoniae B 88; test: as above; format: cell-based; conditions: Klebsiella pneumoniae, B88
Description: as §1, §4

[6] = tested on: K. pneumoniae H 525; test: as above; format: cell-based; conditions: Klebsiella pneumoniae, H525
Description: as §1, §4

[7] = tested on: P. aeruginosa PAO1; test: as above; format: cell-based; conditions: Pseudomonas aeruginosa
Description: as §1, §4

[8] = target: T1, Class A beta-lactamase SHV 18 (K. pneumoniae ATCC 700603) (Klebsiella pneumoniae, UniProt P0AD64, E235K/G234A/I4F/R39S); test: Beta-lactamase enzyme inhibition (Nitrocefin, crude enzyme); format: biochemical; conditions: Class A, K. pneumoniae ATCC 700603 (SHV 18); read-out: Beta-lactamase enzyme inhibition IC50
T1 sequence (P0AD64 1-286 I4F/R39S/G234A/E235K): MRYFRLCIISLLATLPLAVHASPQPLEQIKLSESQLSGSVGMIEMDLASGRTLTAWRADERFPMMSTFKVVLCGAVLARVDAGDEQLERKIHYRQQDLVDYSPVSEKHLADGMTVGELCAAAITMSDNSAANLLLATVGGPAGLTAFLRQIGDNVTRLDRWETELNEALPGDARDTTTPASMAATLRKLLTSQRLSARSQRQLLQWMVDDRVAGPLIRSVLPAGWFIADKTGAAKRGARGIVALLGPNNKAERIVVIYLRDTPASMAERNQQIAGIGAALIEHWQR
Description: (§5) Absorbance was measured at 485 nm by UV-spectrophotometer. The IC50 was calculated by plotting absorbance against concentration through Sigmoidal dose response curve using Graph Pad software.
(§6) The enzyme inhibition was expressed as IC50.

[9] = tested on: Class C beta-lactamase CMY/DHA (E. coli M50); test: as above; format: biochemical
Description: as §5, §6

[10] = target: T2, Class D beta-lactamase OXA 23 (A. baumannii NCTC 13301) (Acinetobacter baumannii, UniProt Q9L4P2); test: as above; format: biochemical; conditions: Class D, A. baumannii NCTC 13301 (OXA 23); read-out: Beta-lactamase enzyme inhibition IC50
T2 construct: preincubated mixture of crude enzyme and the compounds; endogenous in cells; host or cells: A. baumannii NCTC 13301
Description: as §5, §6

[11] = target: T3, Class C beta-lactamase P99 (E. cloacae J137) (Enterobacter cloacae, UniProt P05364); test: as above; format: biochemical
T3 construct: preincubated mixture of crude enzyme and the compounds; endogenous in cells; host or cells: E. cloacae J137
Description: as §5

[12] = target: Class D beta-lactamase OXA 26 (A. baumannii NCTC 13303) (Acinetobacter baumannii, UniProt Q9F0V2); test: as above; format: biochemical; conditions: A. baumannii NCTC 13303 (OXA 26), read-out: Beta-lactamase enzyme inhibition IC50
Description: as §5

[13] = tested on: E. coli M50; test: Zone of inhibition, agar well, with and without ceftazidime; format: cell-based; conditions: E. coli M50
Description: (§7) In a typical experiment, two sets of plates containing growth media (Molten Mueller Hilton Agar) and bacterial strains were prepared. One set of plates was taken as control (without ceftazidime) and other set contained ceftazidime. The media was allowed to solidify and wells were punched later, into which varying concentrations of compounds according to the invention were poured. A two-fold serial dilution range of each of the compounds according to invention was prepared and 50 μl of each of the dilution was added into the punched well. The plates were then incubated at 37° C. for 18 hours in BOD incubator and diameters of zone of inhibition were measured after the completion of the incubation.
(§8) The Table 6 provides the antibacterial activity of the combination comprising compounds according to invention and ceftazidime. The compounds according to invention were tested at 0.12, 0.25, 0.5 and 1 μg/well.

[14] = tested on: E. coli NCTC 13353; test: as above; format: cell-based; conditions: E. coli NCTC 13353
Description: as §7, §8

[15] = compound 0.25 μg/well + Ceftazidime 10 μg/ml
[16] = compound 0.5 μg/well + Ceftazidime 10 μg/ml
[17] = compound 1 μg/well + Ceftazidime 10 μg/ml
[18] = compound […] + Ceftazidime 10 μg/ml

T2 sequence (Q9L4P2 18-273): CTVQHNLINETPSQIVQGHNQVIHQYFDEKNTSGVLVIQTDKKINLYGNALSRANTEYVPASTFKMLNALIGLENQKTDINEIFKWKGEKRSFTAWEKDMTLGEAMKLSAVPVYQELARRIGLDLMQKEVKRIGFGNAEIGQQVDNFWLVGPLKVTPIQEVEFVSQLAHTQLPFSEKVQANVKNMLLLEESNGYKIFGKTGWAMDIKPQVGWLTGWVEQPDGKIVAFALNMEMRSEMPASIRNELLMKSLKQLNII
Class D beta-lactamase OXA 26 (A. baumannii NCTC 13303), sequence (Q9F0V2 entry or part of it): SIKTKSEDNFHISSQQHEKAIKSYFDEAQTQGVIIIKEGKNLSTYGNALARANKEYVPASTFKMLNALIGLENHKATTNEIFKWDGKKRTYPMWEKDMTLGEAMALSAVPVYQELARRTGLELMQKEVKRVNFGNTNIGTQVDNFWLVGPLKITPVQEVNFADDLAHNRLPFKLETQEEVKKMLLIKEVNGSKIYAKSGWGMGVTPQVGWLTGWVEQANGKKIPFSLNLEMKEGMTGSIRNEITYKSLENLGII
T3 sequence (P05364 21-381): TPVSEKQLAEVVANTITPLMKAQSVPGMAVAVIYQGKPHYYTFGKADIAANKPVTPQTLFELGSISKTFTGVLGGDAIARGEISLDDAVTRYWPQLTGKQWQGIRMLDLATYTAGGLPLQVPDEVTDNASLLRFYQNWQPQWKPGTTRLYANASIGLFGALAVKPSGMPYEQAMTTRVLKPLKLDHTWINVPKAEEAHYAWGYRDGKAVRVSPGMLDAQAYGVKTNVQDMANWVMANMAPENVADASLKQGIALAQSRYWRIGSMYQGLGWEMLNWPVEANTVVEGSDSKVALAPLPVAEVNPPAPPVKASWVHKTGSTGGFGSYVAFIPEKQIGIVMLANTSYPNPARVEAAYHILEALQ

`O=C(C[C@@H]1CCCN1)NNC(=O)[C@@H]1CC[C@@H]2CN1C(=O)N2OS(=O)(=O)O` [Example 1, (2S,5R)-Sulfuric acid mono-{2-[N′-(2-(S)-pyrrolidin-2-yl-acetyl)-hydrazinocarbonyl]-7-oxo-1,6-diaza-bicyclo[3.2.1]oct-6-yl}ester] gave an MIC [1] of 0.5 µg/mL (≈ 1.28 µM), an MIC [2] of 0.5 µg/mL (≈ 1.28 µM) and an MIC [3] of 0.5 µg/mL (≈ 1.28 µM). The MIC [4] was 0.5 µg/mL (≈ 1.28 µM), the MIC [5] was 0.5 µg/mL (≈ 1.28 µM) and the MIC [6] was 0.5 µg/mL (≈ 1.28 µM). For the same molecule, the MIC [7] was 4 µg/mL (≈ 10.2 µM), the IC50 [8] was 0.08 µM and 0.081 µM and the IC50 [9] was 0.06 µM. It also gave an IC50 ([9]; listed as Compound of Example 1) of 0.065 µM, an IC50 [10] of 2.39 µM and an IC50 [11] of 0.027 µM. The IC50 [12] was 4.77 µM, the “Diameter of Zone of Inhibition, Compound + Ceftazidime (10 μg/ml)” value (shortened to “Diameter of Zone of Inhibition”) [13, 15] was 19 mm and the “Diameter of Zone of Inhibition” value [13, 16] was 20.5 mm. The “Diameter of Zone of Inhibition” value [13, 17] was 22.5 mm, the “Diameter of Zone of Inhibition” value [13, 18] was 17 mm and the zone of inhibition at […] ([13]; Escherichia coli, compound alone, 0.12 μg/well, read-out: Diameter of Zone of Inhibition, Compound) was 10.5 mm. The zone of inhibition at 0.25 µg/disc ([13]; Escherichia coli, compound alone, 0.25 μg/well, read-out: Diameter of Zone of Inhibition, Compound) was 14 mm, the zone of inhibition at 0.5 µg/disc ([13]; Escherichia coli, compound alone, 0.5 μg/well, read-out: Diameter of Zone of Inhibition, Compound) was 16 mm and the zone of inhibition at 1 µg/disc ([13]; Escherichia coli, compound alone, 1 μg/well, read-out: Diameter of Zone of Inhibition, Compound) was 18 mm. The “Diameter of Zone of Inhibition” value [14, 15] was 26 mm, the “Diameter of Zone of Inhibition” value [14, 16] was 28 mm and the “Diameter of Zone of Inhibition” value [14, 17] was 31 mm. For the same molecule, the “Diameter of Zone of Inhibition” value [14, 18] was 22 mm, the zone of inhibition at […] ([14]; Escherichia coli, NCTC13353, compound alone, 0.12 μg/well, read-out: Diameter of Zone of Inhibition, Compound) was 11.5 mm and the zone of inhibition at 0.25 µg/disc ([14]; Escherichia coli, NCTC13353, compound alone, 0.25 μg/well, read-out: Diameter of Zone of Inhibition, Compound) was 14 mm. The zone of inhibition at 0.5 µg/disc ([14]; Escherichia coli, NCTC13353, compound alone, 0.5 μg/well, read-out: Diameter of Zone of Inhibition, Compound) was 15 mm and the zone of inhibition at 1 µg/disc ([14]; Escherichia coli, NCTC13353, compound alone, 1 μg/well, read-out: Diameter of Zone of Inhibition, Compound) was 16.5 mm.
